Laboratory results published in the OPERA property sets (Mansouri et al. 2018).

Conditions: not given

Q: For CN(C)C(=O)Oc1cccc([N+](C)(C)C)c1.COS(=O)(=O)[O-], which melting point is on record?
A: 143 °C

Q: Which boiling point does the source give for c1ccc(-n2ccnc2)cc1 here?
A: 276 °C

Q: And the melting point?
A: 13 °C

Q: For Nc1ccc(-c2ccccc2N)cc1, which boiling point is on record?
A: 363 °C

Q: And the melting point?
A: 54.5 °C

Q: With CC(C)(C)N=C=O as the molecule, how does the melting point read?
A: 85.5 °C

Q: With Clc1ccc2cc(Cl)ccc2c1 as the molecule, how does the boiling point read?
A: 285 °C

Q: And the melting point?
A: 140 °C

Q: Which boiling point does the source give for O=C(C(F)(F)F)C(F)(F)F here?
A: -27.4 °C

Q: What about the log10 vapour pressure (mmHg) of the same molecule?
A: 3.35

Q: What about the melting point of the same molecule?
A: -125 °C

Q: For N#CC1CC1, which boiling point is on record?
A: 135 °C

Q: What does the source list for O=C(NNc1ccccc1)c1ccccc1?
A: boiling point: 314 °C; melting point: 168 °C

Q: For CCCCCCCCCCCCCCCCCCC(=O)O, which boiling point is on record?
A: 300 °C

Q: What about the melting point of the same molecule?
A: 69.4 °C

Q: Which log10 vapour pressure (mmHg) does the source give for COP(=S)(OC)Oc1ccc(C#N)cc1 here?
A: -3.1

Q: What about the melting point of the same molecule?
A: 14.5 °C

Q: And the ready biodegradability?
A: not readily biodegradable

Q: Which boiling point does the source give for C=CC[Si](Cl)(Cl)Cl here?
A: 118 °C

Q: And the log10 vapour pressure (mmHg)?
A: 1.25

Q: And the melting point?
A: 35 °C

Q: For Clc1nnc(Cl)c2ccccc12, which ready biodegradability is on record?
A: not readily biodegradable

Q: With CC(C)(OC1CCCCC1)C(=O)O as the molecule, how does the melting point read?
A: 75 °C

Q: Which boiling point does the source give for CCCCCCCCCCCCCCCCS here?
A: 334 °C

Q: What about the log10 vapour pressure (mmHg) of the same molecule?
A: -4.99

Q: What about the melting point of the same molecule?
A: 19 °C

Q: With CCC(O)(COC(N)=O)c1ccccc1 (stereo unspecified) as the molecule, how does the melting point read?
A: 55 °C

Q: With CCC(=O)Nc1cc(N(CCOC(C)=O)CCOC(C)=O)ccc1N=Nc1ccc([N+](=O)[O-])cc1Cl as the molecule, how does the ready biodegradability read?
A: not readily biodegradable

Q: For CCC1CCCS1 (stereo unspecified), which boiling point is on record?
A: 157 °C

Q: For CC(C)(C)CN, which boiling point is on record?
A: 82 °C

Q: Which boiling point does the source give for CC(CBr)c1ccccc1 (stereo unspecified) here?
A: 188 °C

Q: What about the melting point of the same molecule?
A: -59.3 °C

Q: For C=CC(C)(C)O, which boiling point is on record?
A: 97 °C

Q: What about the log10 Henry constant (atm·m³/mol) of the same molecule?
A: -4.68

Q: What about the melting point of the same molecule?
A: -28 °C

Q: Which boiling point does the source give for Clc1ccc2cccc(Cl)c2c1 here?
A: 286 °C

Q: What about the melting point of the same molecule?
A: 63.5 °C

Q: With O=C1c2c(O)ccc(Nc3ccccc3)c2C(=O)c2c([N+](=O)[O-])ccc(O)c21 as the molecule, how does the ready biodegradability read?
A: not readily biodegradable

Q: With Oc1ccc2c(c1)Cc1ccccc1-2 as the molecule, how does the melting point read?
A: 168 °C

Q: Which boiling point does the source give for Oc1ccccc1Cl here?
A: 175 °C

Q: And the log10 Henry constant (atm·m³/mol)?
A: -4.95

Q: What about the log10 Koc (L/kg) of the same molecule?
A: 2.6

Q: What about the log10 vapour pressure (mmHg) of the same molecule?
A: 0.403

Q: What about the melting point of the same molecule?
A: 9.8 °C

Q: And the ready biodegradability?
A: not readily biodegradable

Q: With C[Si](C)(C)CC(=O)O as the molecule, how does the melting point read?
A: 41 °C

Q: Which melting point does the source give for CCCCCc1ccc(O)cc1O here?
A: 72.5 °C

Q: Which results are given for COc1ccc([N+](=O)[O-])cc1?
A: boiling point: 274 °C; melting point: 54 °C; ready biodegradability: not readily biodegradable

Q: Which boiling point does the source give for Cc1ccoc1 here?
A: 66 °C

Q: What does the source list for ClC1=C(Cl)[C@]2(Cl)[C@@H]3[C@@H]4C[C@@H]([C@H]5O[C@@H]45)[C@@H]3[C@@]1(Cl)C2(Cl)Cl (single isomer, unassigned)?
A: boiling point: 330 °C; log10 Henry constant (atm·m³/mol): -5.09; log10 Koa: 8.52; log10 Koc (L/kg): 4.08; log10 vapour pressure (mmHg): -5.38; melting point: 202 °C; ready biodegradability: not readily biodegradable

Q: With c1ccc(C2CCOCO2)cc1 (stereo unspecified) as the molecule, how does the boiling point read?
A: 247 °C

Q: With CC1CNC(C)CN1 (stereo unspecified) as the molecule, how does the boiling point read?
A: 163 °C

Q: And the log10 vapour pressure (mmHg)?
A: 0.422

Q: And the melting point?
A: 116 °C

Q: With CSc1ncnc2c1ncn2[C@@H]1O[C@H](CO)[C@@H](O)[C@H]1O as the molecule, how does the melting point read?
A: 164 °C

Q: With COC(=O)OC as the molecule, how does the boiling point read?
A: 90.5 °C

Q: What about the log10 vapour pressure (mmHg) of the same molecule?
A: 1.74

Q: And the melting point?
A: 3 °C

Q: Which results are given for FC(Cl)Br (stereo unspecified)?
A: boiling point: 36 °C; melting point: -115 °C

Q: Which melting point does the source give for COc1cc(NCc2ccc3nc(N)nc(N)c3c2C)cc(OC)c1OC here?
A: 216 °C

Q: Which results are given for CCC(C)(C)OC?
A: boiling point: 86.3 °C; log10 Henry constant (atm·m³/mol): -2.88; log10 vapour pressure (mmHg): 1.88

Q: Which boiling point does the source give for CCOC(=O)c1ccc(C(=O)OCC)cc1 here?
A: 302 °C

Q: And the melting point?
A: 44 °C

Q: With CCCCCCCCCCCCc1ccc(N)cc1 as the molecule, how does the melting point read?
A: 40.5 °C

Q: And the ready biodegradability?
A: readily biodegradable

Q: With CCOC(=O)c1cnn(C)c1S(=O)(=O)NC(=O)Nc1nc(OC)cc(OC)n1 as the molecule, how does the melting point read?
A: 182 °C

Q: Which boiling point does the source give for Cc1cccc(C)n1 here?
A: 144 °C

Q: And the log10 Henry constant (atm·m³/mol)?
A: -4.98

Q: And the log10 vapour pressure (mmHg)?
A: 0.752

Q: And the melting point?
A: -6.1 °C

Q: For Clc1ccc2c(Cl)cccc2c1Cl, which log10 Koa is on record?
A: 7.5

Q: Which boiling point does the source give for CCCCCCCCOC(=O)CCC here?
A: 244 °C

Q: And the melting point?
A: -55.6 °C

Q: With Cc1nn(-c2cc(NS(C)(=O)=O)c(Cl)cc2Cl)c(=O)n1C(F)F as the molecule, how does the log10 vapour pressure (mmHg) read?
A: -9.01

Q: What about the melting point of the same molecule?
A: 122 °C

Q: With CC(C)c1ccncc1 as the molecule, how does the boiling point read?
A: 178 °C

Q: And the melting point?
A: -54.9 °C

Q: For COCC(=O)Cl, which boiling point is on record?
A: 112 °C

Q: Which boiling point does the source give for Cc1ccc(-c2ccccc2)cc1C here?
A: 282 °C

Q: What about the melting point of the same molecule?
A: 29.5 °C

Q: For OCCCF, which boiling point is on record?
A: 128 °C

Q: With CCCC/C=C/CO as the molecule, how does the boiling point read?
A: 178 °C

Q: With CCC(O)CCC(F)(F)F (stereo unspecified) as the molecule, how does the boiling point read?
A: 141 °C

Q: With COc1ccc2c(c1O)-c1cccc3c1C(C2)N(C)CC3 (stereo unspecified) as the molecule, how does the melting point read?
A: 124 °C

Q: With Cc1nnc(C)s1 as the molecule, how does the boiling point read?
A: 202 °C

Q: And the melting point?
A: 65 °C

Q: With Clc1cccc(Cl)c1Br as the molecule, how does the boiling point read?
A: 242 °C

Q: What about the melting point of the same molecule?
A: 65 °C

Q: Which log10 Koc (L/kg) does the source give for CS/C(C)=N/OC(=O)N(C)SN(C)C(=O)O/N=C(\C)SC here?
A: 2.54

Q: And the log10 vapour pressure (mmHg)?
A: -4.15

Q: What about the melting point of the same molecule?
A: 173 °C

Q: With CCCI as the molecule, how does the boiling point read?
A: 103 °C

Q: And the log10 vapour pressure (mmHg)?
A: 1.63

Q: What about the melting point of the same molecule?
A: -101 °C

Q: With N#Cc1ccc(Cl)c([N+](=O)[O-])c1 as the molecule, how does the melting point read?
A: 99 °C

Q: Which melting point does the source give for NS(=O)(=O)c1ccc(SCCCO)cc1 here?
A: 117 °C

Q: With O=C1CCCCO1 as the molecule, how does the boiling point read?
A: 219 °C

Q: And the melting point?
A: -12.5 °C

Q: For Oc1c(F)cccc1F, which melting point is on record?
A: 39.5 °C

Q: Which boiling point does the source give for CCOCC(=O)OCC here?
A: 158 °C

Q: Which results are given for COC(=O)/C=C\C(=O)OC?
A: boiling point: 198 °C; log10 vapour pressure (mmHg): -0.523

Q: For CC(=O)Cc1c[nH]c2ccccc12, which melting point is on record?
A: 116 °C

Q: Which log10 vapour pressure (mmHg) does the source give for COC(=O)/C=C(\C)OP(=O)(OC)OC here?
A: -3.91

Q: What about the melting point of the same molecule?
A: 21 °C

Q: For Clc1ccccc1C(c1ccccc1)(c1ccccc1)n1ccnc1, which melting point is on record?
A: 148 °C

Q: With CC(=O)c1ccc(C)s1 as the molecule, how does the boiling point read?
A: 232 °C

Q: What about the melting point of the same molecule?
A: 27.5 °C

Q: For C#CCCCC, which boiling point is on record?
A: 71.3 °C

Q: And the log10 vapour pressure (mmHg)?
A: 2.12

Q: And the melting point?
A: -132 °C

Q: With O=CC=Cc1ccco1 as the molecule, how does the melting point read?
A: 54 °C

Q: Which results are given for O=C1CCCN1?
A: boiling point: 245 °C; log10 vapour pressure (mmHg): -2.02; melting point: 23 °C

Q: With CC1(C)[C@H]2CC[C@]1(C)C(=O)[C@H]2O as the molecule, how does the melting point read?
A: 206 °C

Q: What does the source list for CCOC(C)OCC?
A: boiling point: 102 °C; log10 vapour pressure (mmHg): 1.44; melting point: -100 °C

Q: Which results are given for FC(F)OC(C(F)(F)F)C(F)(F)F?
A: boiling point: 42.1 °C; log10 vapour pressure (mmHg): 2.59

Q: For CC(=O)O[C@]1(C(C)=O)CC[C@H]2[C@@H]3C[C@H](C)C4=CC(=O)C=C[C@]4(C)[C@@]3(F)[C@@H](O)C[C@@]21C, which melting point is on record?
A: 298 °C

Q: For CC(C)CCS, which boiling point is on record?
A: 120 °C

Q: What about the log10 vapour pressure (mmHg) of the same molecule?
A: 1.31

Q: Which boiling point does the source give for C=C(C)CCCC here?
A: 92 °C

Q: And the log10 vapour pressure (mmHg)?
A: 1.78

Q: What about the melting point of the same molecule?
A: -103 °C

Q: With O=C1CC[C@@H](C(=O)O)N1 as the molecule, how does the melting point read?
A: 185 °C

Q: What does the source list for CC=CC(=O)O?
A: boiling point: 185 °C; log10 vapour pressure (mmHg): -0.542; melting point: 72 °C

Q: Which results are given for Nc1ccccc1Oc1ccccc1?
A: boiling point: 308 °C; melting point: 45.8 °C

Q: Which boiling point does the source give for CCCCCCCCCCCCCCCCC1CCCCC1 here?
A: 385 °C

Q: And the melting point?
A: 33.6 °C

Q: With CCCCCCCCc1ccc(N)cc1 as the molecule, how does the boiling point read?
A: 310 °C

Q: What about the melting point of the same molecule?
A: 20 °C

Q: What about the ready biodegradability of the same molecule?
A: readily biodegradable

Q: Which boiling point does the source give for O=[N+]([O-])c1ccccc1CO here?
A: 270 °C

Q: What about the melting point of the same molecule?
A: 74 °C

Q: With N[C@@H](CSSC[C@H](N)C(=O)O)C(=O)O as the molecule, how does the ready biodegradability read?
A: readily biodegradable

Q: With O=C1CN(N=Cc2ccc([N+](=O)[O-])o2)C(=O)N1 as the molecule, how does the melting point read?
A: 263 °C

Q: Which melting point does the source give for O=C(c1ccccc1)c1c(F)c(F)c(F)c(F)c1F here?
A: 37 °C

Q: For OB(O)c1ccccc1, which melting point is on record?
A: 219 °C

Q: With FC(F)(F)C(F)(F)Br as the molecule, how does the boiling point read?
A: -21 °C

Q: With Oc1cccc2sccc12 as the molecule, how does the melting point read?
A: 79.8 °C

Same assay, conditions: fish

Q: With COP(=S)(OC)Oc1ccc(C#N)cc1 as the molecule, how does the log10 BCF read?
A: 1.56

Q: And the log10 biotransformation half-life (days)?
A: 0.23

Q: What does the source list for Oc1ccccc1Cl?
A: log10 BCF: 1.35; log10 biotransformation half-life (days): -0.38

Q: With COc1ccc([N+](=O)[O-])cc1 as the molecule, how does the log10 BCF read?
A: 1.08

Q: And the log10 biotransformation half-life (days)?
A: -0.95

Q: With ClC1=C(Cl)[C@]2(Cl)[C@@H]3[C@@H]4C[C@@H]([C@H]5O[C@@H]45)[C@@H]3[C@@]1(Cl)C2(Cl)Cl (single isomer, unassigned) as the molecule, how does the log10 BCF read?
A: 3.91

Q: What about the log10 biotransformation half-life (days) of the same molecule?
A: 1.65
